Measurements taken from BigSolDB 2.1.

COc1ccc(-n2nc(C(N)=O)c3c2C(=O)N(c2ccc(N4CCCCC4=O)cc2)CC3)cc1
solubility (mole fraction)
Details	288.15 K	293.15 K	298.15 K	303.15 K	308.15 K	313.15 K	318.15 K	323.15 K	328.15 K
in acetone	0.00024	0.000276	0.00032	0.000377	0.000436	0.00051	0.000584	0.000669	0.000754
in ethanol	0.000112	0.000144	0.00018	0.00022	0.000268	0.00033	0.000402	0.000474	0.000572
in isopropanol	6.12e-05	7.67e-05	9.95e-05	0.000133	0.000167	0.000214	0.000271	0.00033	0.000404
in methanol	0.000327	0.000416	0.00053	0.000669	0.000842	0.00104	0.00128	0.00156	0.00188
in water	9.68e-06	1.13e-05	1.39e-05	1.67e-05	1.95e-05	2.31e-05	2.74e-05	3.19e-05	3.72e-05
